The text below walks through data of ChEMBL document CHEMBL1147171, “Synthesis and antiplasmodial activity of new N-[3-(4-{3-[(7-chloroquinolin-4-yl)amino]propyl}piperazin-1-yl)propyl]carboxamides” (Bioorg Med Chem, 2007).

For assay [1], the system named is L6. Briefly: Cytotoxicity against L6 cells. The format is cell-based. The note with it: Rattus norvegicus.
In assay [2] the test system is Plasmodium falciparum. Nature of the assay: Antiparasitic activity against chloroquine-sensitive Plasmodium falciparum NF54 in erythrocytes by [3H]hypoxanthine uptake. The format is functional, organism-based.
Assay [3] deals with Plasmodium falciparum. Nature of the assay: Antiparasitic activity against chloroquine, pyrimethamine-resistant Plasmodium falciparum K1 in erythrocytes by [3H]hypoxanthine uptake. The class given is functional, organism-based.
The subject of assay [4] is Plasmodium falciparum. Nature of the assay: Relative activity against Plasmodium falciparum NF54 and K1 as IC50 ratio. The class given is functional.

Usually IC50 stands for the concentration that inhibits the measured activity by half. A higher IC50 goes with a need for much substance. For `O=C(NCCCN1CCN(CCCNc2ccnc3cc(Cl)ccc23)CC1)c1cc(Cl)cc(Cl)c1`, the IC50 in assay [1] came to 3000 nM; in assay [2], 7 nM; in assay [3], 12 nM. The “Ratio IC50” value in assay [4] turned out to be 0.58.
Regarding `CCCCCC(=O)NCCCN1CCN(CCCNc2ccnc3cc(Cl)ccc23)CC1`, the concentration for half-maximal inhibition (IC50) in assay [2] was determined as 338 nM; in assay [3] it was 900 nM. In assay [4], the “Ratio IC50” value was 0.38.
In the case of `O=C(Cc1ccc(Cl)cc1Cl)NCCCN1CCN(CCCNc2ccnc3cc(Cl)ccc23)CC1`, the half-maximal inhibitory concentration (IC50) in assay [1] stood at 15100 nM; in assay [2] it was 8 nM; in assay [3] it was 24 nM. Besides, the “Ratio IC50” value in assay [4] amounted to 0.34.
In the case of `CC(C)CC(=O)NCCCN1CCN(CCCNc2ccnc3cc(Cl)ccc23)CC1`, the IC50 in assay [2] came out at 13 nM; in assay [3], 78 nM. In assay [4], the “Ratio IC50” value worked out at 0.17.
`O=C(NCCCN1CCN(CCCNc2ccnc3cc(Cl)ccc23)CC1)C(c1ccccc1)c1ccccc1`: the IC50 in assay [1] amounted to 9300 nM; in assay [2] it was 25 nM; in assay [3], 106 nM. Besides, in assay [4], the “Ratio IC50” value was determined as 0.24.
For the molecule `NC(=O)c1ccc(C(=O)NCCCN2CCN(CCCNc3ccnc4cc(Cl)ccc34)CC2)cc1`, the results for the IC50 in assay [2] and in assay [3] were 83 nM and 249 nM, respectively. Besides, in assay [4], the “Ratio IC50” value is on record as 0.33.
On the same counts, the results for `Cc1ccccc1C(=O)NCCCN1CCN(CCCNc2ccnc3cc(Cl)ccc23)CC1` are 10 nM, 34 nM and 0.29.
The like results for `O=C(NCCCN1CCN(CCCNc2ccnc3cc(Cl)ccc23)CC1)c1ccc(C(=O)c2ccccc2)cc1` were, in that order, 1540 nM, 3070 nM and 0.5.
With `O=C(CCCOc1ccccc1)NCCCN1CCN(CCCNc2ccnc3cc(Cl)ccc23)CC1`, the IC50 in assay [1] was 9300 nM; in assay [2] it was 12 nM; in assay [3], 73 nM. Also, the “Ratio IC50” value in assay [4] was found to be 0.16.
The like results for `O=C(CCCCc1ccccc1)NCCCN1CCN(CCCNc2ccnc3cc(Cl)ccc23)CC1` were, in that order, 9400 nM, 12 nM, 54 nM and 0.22.
The like results for `O=C(NCCCN1CCN(CCCNc2ccnc3cc(Cl)ccc23)CC1)c1cccc(OC(F)(F)F)c1` were, in that order, 8500 nM, 12 nM, 15 nM and 0.8.
Regarding `O=C(Cc1c(Cl)cccc1Cl)NCCCN1CCN(CCCNc2ccnc3cc(Cl)ccc23)CC1`, the 50% inhibitory concentration (IC50) in assay [1] worked out at 5300 nM; in assay [2], 11 nM; in assay [3], 36 nM. In addition, the “Ratio IC50” value in assay [4] is listed as 0.32.
On the same counts, the results for `CC(=O)CCC(=O)NCCCN1CCN(CCCNc2ccnc3cc(Cl)ccc23)CC1` are 11000 nM, 59 nM, 380 nM and 0.15.
As to `O=C(CCCc1ccccc1)NCCCN1CCN(CCCNc2ccnc3cc(Cl)ccc23)CC1`, the IC50 was 11000 nM in assay [1], 17 nM in assay [2] and 61 nM in assay [3]. Besides, the “Ratio IC50” value in assay [4] is 0.28.
On the same counts, the results for `CCOc1ccc(C(=O)NCCCN2CCN(CCCNc3ccnc4cc(Cl)ccc34)CC2)cc1` are 5300 nM, 8 nM, 12 nM and 0.67.
The like results for `O=C(NCCCN1CCN(CCCNc2ccnc3cc(Cl)ccc23)CC1)c1ccc(F)c(F)c1` were, in that order, 10000 nM, 7 nM, 13 nM and 0.54.
The like results for `O=C(NCCCN1CCN(CCCNc2ccnc3cc(Cl)ccc23)CC1)c1ccc(Oc2ccccc2)cc1` were, in that order, 1400 nM, 9 nM, 15 nM and 0.6.
As for `O=C(CCCC1CCCCC1)NCCCN1CCN(CCCNc2ccnc3cc(Cl)ccc23)CC1`, the values for the IC50 in assay [2] and in assay [3] were 156 nM and 272 nM, respectively. Further, in assay [4], the “Ratio IC50” value is given as 0.57.
For the molecule `O=C(NCCCN1CCN(CCCNc2ccnc3cc(Cl)ccc23)CC1)c1cccc(C(F)(F)F)c1`, the half-maximal inhibitory concentration (IC50) in assay [1] stood at 30100 nM; in assay [2], 37 nM; in assay [3] it was 53 nM. Also, the “Ratio IC50” value in assay [4] was determined as 0.68.
With `CCN(CC)CCCC(C)Nc1ccnc2cc(Cl)ccc12` (stereo not given) [CHLOROQUINE], in assay [1], inhibition was half-maximal at 7700 nM (IC50).
With `CCc1ccc(C(=O)NCCCN2CCN(CCCNc3ccnc4cc(Cl)ccc34)CC2)cc1`, the IC50 in assay [1] was found to be 3900 nM; in assay [2], 8 nM; in assay [3], 13 nM. Besides, in assay [4], the “Ratio IC50” value was found to be 0.62.
The like results for `O=C(NCCCN1CCN(CCCNc2ccnc3cc(Cl)ccc23)CC1)c1ccccc1C(=O)c1ccccc1` were, in that order, 3200 nM, 10 nM, 17 nM and 0.59.
The like results for `CC(C)=CC(=O)NCCCN1CCN(CCCNc2ccnc3cc(Cl)ccc23)CC1` were, in that order, 30000 nM, 23 nM, 65 nM and 0.36.
The like results for `O=C(NCCCN1CCN(CCCNc2ccnc3cc(Cl)ccc23)CC1)c1ccc(Cl)c([N+](=O)[O-])c1` were, in that order, 11300 nM, 20 nM, 43 nM and 0.47.
Consider `O=C(Cc1cccc2ccccc12)NCCCN1CCN(CCCNc2ccnc3cc(Cl)ccc23)CC1`, for which the half-maximal inhibitory concentration (IC50) was 6200 nM in assay [1], 13 nM in assay [2] and 41 nM in assay [3]. In addition, the “Ratio IC50” value in assay [4] amounted to 0.32.
The like results for `O=C(NCCCN1CCN(CCCNc2ccnc3cc(Cl)ccc23)CC1)c1cc(F)cc(F)c1` were, in that order, 11600 nM, 10 nM, 26 nM and 0.39.
Take `COc1ccc(C(=O)NCCCN2CCN(CCCNc3ccnc4cc(Cl)ccc34)CC2)cc1OC`: the IC50 in assay [2] was 36 nM; in assay [3], 447 nM. Moreover, in assay [4], the “Ratio IC50” value worked out at 0.08.
As to `COc1cccc(C(=O)NCCCN2CCN(CCCNc3ccnc4cc(Cl)ccc34)CC2)c1`, the IC50 worked out at 9300 nM in assay [1], 10 nM in assay [2] and 28 nM in assay [3]. In addition, the “Ratio IC50” value in assay [4] is on record as 0.36.
On the same counts, the results for `O=C(CCCc1c[nH]c2ccccc12)NCCCN1CCN(CCCNc2ccnc3cc(Cl)ccc23)CC1` are 6500 nM, 15 nM, 69 nM and 0.22.
On to `O=C(CC1CCCCC1)NCCCN1CCN(CCCNc2ccnc3cc(Cl)ccc23)CC1`, for which the figures for the IC50 in assay [1], in assay [2] and in assay [3] were 7200 nM, 10 nM and 27 nM, respectively. Moreover, the “Ratio IC50” value in assay [4] amounted to 0.37.
